For one data set, the system named is RmELA. Nature of the data set: Acyl lysine hydrolysis (substrate specificity of purified RmELA). It counts as biochemical, Rhodothermus marinus. Particulars: for hydrolysis (degradation) activity of the enzyme for the acyl lysine, in words: 4 mM substrate, pH 7.0, 37° C.; for Hydrolysis activity: acyl lysine 4 mM, 100 mM Tris-HCl (pH 7.0), 37° C., 1 U = 1 μmol lysine per 1 minute. The procedure:
To look into the substrate specificity of the acyl lysine hydrolysis of this enzyme, the reactivity of the enzyme as described herein for various kinds of acyl lysines was examined. […] Activity measurement was performed with the various kinds of acyl lysines (4 mM) and 100 mM Tris-HCl (pH 7.0) at 37° C., and the activity was calculated by measuring the concentration of lysine produced along with the degradation of the acyl lysines. For the measurement of L-lysine, BF-5 and a lysine electrode (manufactured by Oji Scientific Instruments Co., Ltd.) was used, whereas for the measurement of D-lysine, an amino acid analyzer (manufactured by Hitachi, Ltd.) was used. Here, 1 U was defined as an enzyme amount that releases 1 μmol lysine from each of the acyl lysines (per 1 minute).

Data set [1] in a line: Enzyme activity after heat sterilization of the culture solution. Particulars: 75° C. for 30 minutes. It counts as biochemical. The procedure:
Whether a C. glutamicum expression strain of RmELA could be sterilized with heat while maintaining the enzyme activity was examined. The culture solution acquired by the method described in Example 1, 1-6) in an amount of 150 μl was dispensed to a PCR tube and was subjected to heat treatment at 75° C. for 30 minutes using a block heater to obtain a heat treatment culture solution. The heat treatment culture solution and the heat treatment culture solution serially diluted (with a dilution rate of ×10^2) with a physiological saline solution (0.85% of NaCl) were applied to a CM2G agar medium (10 g of a yeast extract, 10 g of polypeptone, 5 g of glucose, 5 g of sodium chloride, 0.2 g of DL-methionine, 15 g of agar, pH 7.2, and filled up to 1 L with water) containing 25 mg/l of kanamycin, and the number of formed colonies was counted to examine the number of living bacteria of the RmELA expression strain. As a result, no colony formation was detected. […] When a culture solution without the heat treatment was examined by the same method, the number of living bacteria was 7.0×10^10 cfu/ml.
Subsequently, the culture solution and the heat treatment culture solution explained above were centrifuged individually, the supernatants were collected, and the hydrolysis activity of Nε-acetyl-L-lysine within the supernatants was measured.

Data set [2] can be described thus: Synthesis reaction of Nε-octanoyl-L-lysine by RmELA enzymatic solution, L-lysine consumption. It counts as biochemical. The procedure: Using the RmELA enzymatic solution prepared by the method described in Example 7, the synthesis reaction of Nε-octanoyl-L-lysine was carried out. A 100 ml of a reaction solution was prepared so as to give final concentrations of 300 mmol/L octanoic acid, 300 mmol/L L-lysine hydrochloride, 0.1 mmol/L ZnSO4, and 2.1 U/ml the RmELA enzymatic solution and was stirred at 300 rpm using a 200 ml jar fermenter. The pH was adjusted to be 7.0 using 1 N of NaOH, and the reaction temperature was adjusted to be 50° C.
During the reaction, the reaction solution was sampled over time, and an L-lysine concentration within the reaction solution was measured. […] When the reaction solution after 23 hours was analyzed by HPLC, Nε-octanoyl-L-lysine was produced by 80% in terms of yield relative to L-lysine. […] No peak of Nα-octanoyl-L-lysine was detected.
The substrate (octanoic acid and L-lysine hydrochloride) final concentration in the reaction condition was changed to (1) 500 mmol/L, (2) 750 mmol/L, and (3) 1,000 mmol/L to carry out the synthesis reaction of Nε-octanoyl-L-lysine.
During the reaction, the reaction solution was sampled over time, and an L-lysine concentration in the reaction solution was measured. […] Respective consumption rates relative to the charged L-lysine and reaction times were (1) 87% after 35 hours, (2) 92% after 35 hours, and (3) 94% after 57 hours.

Data set [3] in a line: Synthesis reaction of Nε-dodecanoyl-L-lysine, L-lysine consumption. It counts as biochemical. Particulars: 300 mmol/L substrates, 3 U/ml, after 24 hours. How it is done:
Using the RmELA enzymatic solution prepared by the method described in Example 7, the synthesis reaction of Nε-dodecanoyl-L-lysine was carried out. A 200 ml of a reaction solution was prepared so as to give final concentrations of 300 mmol/L dodecanoic acid, 300 mmol/L L-lysine hydrochloride, 0.1 mmol/L ZnSO4, 10% methanol, and 3 U/ml the RmELA enzymatic solution and was stirred at 300 rpm using a 500 ml jar fermenter. The pH was adjusted to be 7.0 using 1 N of NaOH, and the reaction temperature was adjusted to be 55° C.
Nα-dodecanoyl-L-lysine was produced by only 0.06% in terms of yield relative to L-lysine.
For the measurement of lysine, BF-5 and a lysine electrode (manufactured by Oji Scientific Instruments Co., Ltd.) were used. The HPLC analysis was performed with Column YMC-UltraHT Pro C18, 50×2.0 mm I.D. (manufactured by YMC Co., Ltd.), a mobile layer of NaH2PO4 (pH 3.0)/MeOH=3/7, and UV 210 nm.
When the reaction pH was changed from pH 7.0 to pH 6.0, and the synthesis reaction of Nε-dodecanoyl-L-lysine was carried out by a method similar to the above, 96% of the charged L-lysine was consumed after 24 hours (FIG. 7). […] At pH 7.0, dodecanoic acid in the reaction solution was emulsified to give a high viscosity solution. […]

The next data set can be described thus: Optimum pH of the enzyme. It counts as biochemical. Particulars: 37° C., acetate, Tris-HCl and borate buffers, pH 4.2 to 9.8. How it is done: Using the purified enzyme acquired by the method described in Example 3, the optimum pH and pH stability of the enzyme with Nε-acetyl-L-lysine as a substrate were examined.
Using various kinds of buffers (pH 4.2 to 6.0: acetate buffers, pH 7.2 to 8.8: Tris-HCl buffers, and pH 9.3 to 9.8: borate buffers) at 37° C., activity at various pH was measured. The activity was represented as relative activity (%) with the maximum activity value as 100. The optimum pH of this enzyme was pH 5.0.

Data set [4] is classed as biochemical. The settings on record: incubated at 30° C. to 100° C. for 1 hour. The procedure: Using the purified enzyme acquired by the method described in Example 3, the optimum reaction temperature and temperature stability of the enzyme with Nε-acetyl-L-lysine as a substrate were examined.
Subsequently, remaining activity after being incubated at certain temperatures (30° C. to 100° C.) for 1 hour was measured. The activity was represented as relative activity (%) with the activity value before the incubation as 100.

Data set [5] can be described thus: Storage stability of enzymatic solutions. It counts as biochemical. Particulars: stored at 4° C., 15° C. and 25° C. The procedure: A culture solution of the C. glutamicum expression strain of RmELA acquired by the method described in Example 1, 1-6) was centrifuged to collect the supernatant, which was membrane-sterilized with a 0.45 μm filter to obtain an RmELA enzymatic solution. A WDK010/pPKT-tatABC strain (WO 2010/067871) as a C. glutamicum expression strain of ELA native to Streptomyces mobarensis (SmELA) was cultured and sterilized by a similar procedure to obtain an SmELA enzymatic solution.
These enzymatic solutions were stored at temperatures of 4° C., 15° C., and 25° C., and the transition of enzyme activity was examined. The activity was represented as relative activity (%) with the activity value when the storage started as 100.

Results on 8 molecules are retold here after US10266857B2, “Method for producing Nε-acyl-L-lysine” (AJINOMOTO CO., INC., priority 2015, dated 2019).

For `NCCCC[C@H](NC(=O)c1ccccc1)C(=O)O` [Nα-Benzoyl-L-Lys, Nα-benzoyl-L-lysine], in the data set on RmELA, the “hydrolysis (degradation) activity of the enzyme for the acyl lysine, in words” value (shortened to “hydrolysis (degradation) activity”) is on record as “did not exhibit hydrolysis activity” and the Hydrolysis activity came out at 0.0 U/mg.
As for `N[C@@H](CCCCNC(=O)CC[C@H](N)C(=O)O)C(=O)O` [Nε-(γGlu)-L-Lys], the Hydrolysis activity in the data set on RmELA came to 41.3 U/mg.
For `CC(=O)NCCCC[C@H](N)C(=O)O` [Nε-Acetyl-L-Lys, Nε-acetyl-L-lysine], in the data set on RmELA, the “hydrolysis (degradation) activity” value is recorded as “exhibited degradation activity” and the Hydrolysis activity is 17.5 U/mg.
The like results for `N[C@@H](CCCCNC(=O)c1ccccc1)C(=O)O` [Nε-Benzoyl-L-Lys, Nε-benzoyl-L-lysine] were, in that order, “exhibited degradation activity” and 90.1 U/mg.
On to `N[C@@H](CCCCNC(=O)[C@@H](N)CCC(=O)O)C(=O)O` [Nε-(αGlu)-L-Lys], for which the Hydrolysis activity in the data set on RmELA came to 36.8 U/mg.
`CC(=O)N[C@@H](CCCCN)C(=O)O` [Nα-Acetyl-L-Lys, Nα-acetyl-L-lysine]: in the data set on RmELA, the “hydrolysis (degradation) activity” value is “did not exhibit hydrolysis activity” and the Hydrolysis activity is 0.0 U/mg.
The like results for `CC(=O)NCCCC[C@@H](N)C(=O)O` [Nε-Acetyl-D-Lys, Nε-acetyl-D-lysine] were, in that order, “did not exhibit hydrolysis activity” and 0.0 U/mg.

B1: RmELA: amidohydrolase native to Rhodothermus marinus (NCBI; WP_012844854.1, SEQ ID NO: 1), Nε-acyl-L-lysine-specific aminoacylase (protein, listed as Rhodothermus marinus)
chain: MLLLPMQARGQADYVLVNGRLYTVDPAQPVAEAMAVRGDRILMVGTTAQLTAAYPDAPHIDLQGRAVVPGFIDAHAHLMGLGLSRLRADLTGTRSVEEILERLREFARQLPEGAWLLGRGWDQNDWPVKEFPTRQMLDEIFPERPVWLVRIDGHAAWANTAAIRRANPALLTEQIPDPEGGHIVRDAEGRLTGVFIDEAMDLIARHIPPPSEAELEEALRRAVAEANRFGLTGVHDAGASLKTIQGYRRAVDDGTLTLRLYVMVDGLGEAFDYFCEHGPLLDYGGRLTVRSVKFYIDGALGSRGAALLADYSDDPGNRGLLRHEPEVFADMVQRAMKCGFQVNTHAIGDRGVRVVLDAYEKALRTLGRTVGRHRVEHAQVVAPEDFARFAELDLIASMQPTHATSDMYWAEDRLGPERVRGAYAWRTFLEHGVRLAFGSDFPVELANPLLGFYAAITRQDAEGWPEGGWYPEQRLTREEALRAFTLDAAYAAFQEHELGSLTPGKYADFVVLSHDIMTVPPEQILQTRVLATFFGGRCVYHDPEAAGLCPASP
In the case of B1, the “enzyme activity after heat treatment” value in data set [1] is listed as “no decrease in enzyme activity”. For the same molecule, the “charged L-lysine consumed” value in data set [2] (300 mmol/L substrates, 2.1 U/ml, pH 7.0, 50° C., after 23 hours) is listed as 80%; in data set [3] (pH 6.0, 55° C.), 96%; in data set [3] (pH 7.0, 55° C.), 98%. The “consumption rate relative to the charged L-lysine” value in data set [2] (substrate 500 mmol/L, after 35 hours) turned out to be 87%; in data set [2] (substrate 750 mmol/L, after 35 hours), 92%; in data set [2] (substrate 1,000 mmol/L, after 57 hours) it was 94%. In addition, the entries for the “optimum pH” value in “Optimum pH of the enzyme” and in the data set “Optimum pH of the enzyme” (listed as protein having the amino acid sequence of SEQ ID NO: 1) were 5.0 and “about 5”, respectively. Besides, the “temperature up to which no decrease in activity was shown” value in data set [4] is “up to 80 °C”. The “transition of enzyme activity during storage” value in data set [5] was “did not decrease in enzyme activity”.
